According to ChEMBL document CHEMBL1138170, “Novel lactam NK1 antagonists with anti-emetic activity” (Bioorg Med Chem Lett, 2006):

What was measured:
Gerbil, jird [1] = assay: Inhibition of GR-73632-induced foot-tapping in gerbils after 24 h at 3 mg/kg, iv; assay type: functional; conditions: Meriones
[2] = target: Voltage-gated inwardly rectifying potassium channel KCNH2 (Homo sapiens, UniProt Q12809); assay: Displacement of labelled MK-499 from cloned channel hERG expressed in HEK cells; assay type: cell-based, HEK293
Voltage-gated inwardly rectifying potassium channel KCNH2, sequence (Q12809 whole entry): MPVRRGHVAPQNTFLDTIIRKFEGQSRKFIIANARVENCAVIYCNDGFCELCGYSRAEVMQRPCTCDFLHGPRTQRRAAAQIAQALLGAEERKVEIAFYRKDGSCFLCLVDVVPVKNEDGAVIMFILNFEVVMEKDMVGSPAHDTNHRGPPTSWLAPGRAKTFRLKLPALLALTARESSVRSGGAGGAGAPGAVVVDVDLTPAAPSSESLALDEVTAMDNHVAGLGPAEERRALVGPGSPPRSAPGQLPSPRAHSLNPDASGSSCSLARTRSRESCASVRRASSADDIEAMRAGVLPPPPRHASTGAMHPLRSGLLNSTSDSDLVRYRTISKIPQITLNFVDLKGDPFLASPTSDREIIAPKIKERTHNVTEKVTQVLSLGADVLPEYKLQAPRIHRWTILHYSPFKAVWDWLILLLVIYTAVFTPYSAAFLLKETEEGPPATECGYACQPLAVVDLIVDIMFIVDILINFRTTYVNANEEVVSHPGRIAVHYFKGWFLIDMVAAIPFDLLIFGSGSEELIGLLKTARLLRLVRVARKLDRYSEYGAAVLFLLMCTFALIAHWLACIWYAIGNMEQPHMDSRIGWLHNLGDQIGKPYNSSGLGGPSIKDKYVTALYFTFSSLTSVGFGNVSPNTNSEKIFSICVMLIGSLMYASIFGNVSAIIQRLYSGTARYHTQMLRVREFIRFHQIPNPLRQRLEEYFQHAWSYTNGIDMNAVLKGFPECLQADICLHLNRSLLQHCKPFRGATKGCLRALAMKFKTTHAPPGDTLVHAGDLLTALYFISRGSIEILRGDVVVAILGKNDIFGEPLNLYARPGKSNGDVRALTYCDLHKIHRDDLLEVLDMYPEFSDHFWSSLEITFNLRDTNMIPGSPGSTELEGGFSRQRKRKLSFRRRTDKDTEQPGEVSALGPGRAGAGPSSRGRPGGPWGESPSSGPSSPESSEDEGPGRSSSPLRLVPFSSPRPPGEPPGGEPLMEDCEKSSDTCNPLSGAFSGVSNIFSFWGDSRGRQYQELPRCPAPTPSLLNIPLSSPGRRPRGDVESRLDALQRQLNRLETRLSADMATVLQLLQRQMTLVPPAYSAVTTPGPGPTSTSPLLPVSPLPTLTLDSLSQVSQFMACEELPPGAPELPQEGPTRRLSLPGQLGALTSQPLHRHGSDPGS

Mustela putorius furo = assay: Inhibition of cis-platin induced emesis in ferrets at 1 mg/kg, iv; assay type: functional
Substance-P receptor = Substance-P receptor (Homo sapiens, UniProt P25103); assay: Displacement of [125I]-labeled substance P from the cloned human NK1 receptor expressed in CHO cells; assay type: cell-based
Substance-P receptor, sequence (P25103 whole entry): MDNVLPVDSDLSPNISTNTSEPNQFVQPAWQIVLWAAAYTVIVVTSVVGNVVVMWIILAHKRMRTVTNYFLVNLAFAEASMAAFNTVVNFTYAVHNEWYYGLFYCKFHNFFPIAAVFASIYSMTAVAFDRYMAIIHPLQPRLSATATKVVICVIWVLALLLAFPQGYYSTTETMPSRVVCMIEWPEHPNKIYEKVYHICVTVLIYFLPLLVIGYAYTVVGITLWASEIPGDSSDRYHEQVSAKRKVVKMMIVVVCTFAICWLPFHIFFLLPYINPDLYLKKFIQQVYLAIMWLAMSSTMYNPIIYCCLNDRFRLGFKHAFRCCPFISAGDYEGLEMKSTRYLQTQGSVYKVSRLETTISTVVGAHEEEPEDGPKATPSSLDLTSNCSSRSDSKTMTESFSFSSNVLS

Gerbil, jird [3] = assay: Inhibition of GR-73632-induced foot-tapping in iv dosed gerbils after 0 h; assay type: functional; conditions: Meriones, read-out: ID50 (the source's name)
Gerbil, jird [4] = assay: Inhibition of GR-73632-induced foot-tapping in iv dosed gerbils after 24 h; conditions: Meriones, read-out: ID50 (the source's name)
Gerbil, jird [5] = assay: Inhibition of GR-73632-induced foot-tapping in iv dosed gerbils after 24 h; assay type: functional; conditions: Meriones, read-out: ID50 (the source's name)
Gerbil, jird [6] = assay: Inhibition of GR-73632-induced foot-tapping in iv dosed gerbils after 2 h; assay type: functional; conditions: Meriones, read-out: ID50 (the source's name)
Gerbil, jird [7] = assay: Inhibition of GR-73632-induced foot-tapping in po dosed gerbils after 24 h; assay type: functional; conditions: Meriones, read-out: ID50 (the source's name)

Compound | inhibition in vivo at 3 mg/kg (Gerbil, jird [1]) | Ki [2] | inhibition in vivo at 1 mg/kg (Mustela putorius furo) | IC50 (Substance-P receptor) | ED50 (Gerbil, jird [3]) | ED50 (Gerbil, jird [4]) | ED50 (Gerbil, jird [5]) | ED50 (Gerbil, jird [6]) | ED50 (Gerbil, jird [7])
O=C1C(c2cc(C(F)(F)F)cc(C(F)(F)F)c2)CCN1[C@]1(c2ccccc2)CC[C@@H](N2CCC3(CCOC3)CC2)CC1 (some centres undefined) | 62% | 327 nM | 50% | 0.5 nM | 0.35 mg/kg |  |  |  | 
O=C1N([C@]2(c3ccccc3)CC[C@@H](N3CCC4(CCOC4)CC3)CC2)CCC1(O)c1cc(C(F)(F)F)cc(C(F)(F)F)c1 (some centres undefined) | 5% | 862 nM |  | 0.66 nM |  |  |  |  | 
CN(C)[C@H]1CC[C@](c2ccccc2)(N2CCC(c3cc(C(F)(F)F)cc(C(F)(F)F)c3)C2=O)CC1 (some centres undefined) |  | 984 nM |  | 6.2 nM |  |  |  |  | 
O=C1CN([C@H]2CC[C@](c3ccccc3)(N3CCC(c4cc(C(F)(F)F)cc(C(F)(F)F)c4)C3=O)CC2)CCN1c1ccccc1 (some centres undefined) |  | 2000 nM |  | 1.1 nM | 0.09 mg/kg | 2.1 mg/kg |  |  | 
CC1(c2cc(C(F)(F)F)cc(C(F)(F)F)c2)CCN([C@]2(c3ccccc3)CC[C@@H](N3CCC4(CCOC4)CC3)CC2)C1=O (some centres undefined) |  | 364 nM |  | 0.33 nM |  |  | 0.24 mg/kg |  | 
CC(C(=O)N[C@]1(c2ccccc2)CC[C@@H](N2CCN(c3ccccc3)C(=O)C2)CC1)c1cc(C(F)(F)F)cc(C(F)(F)F)c1 (some centres undefined) |  | 3710 nM |  | 0.62 nM | 0.13 mg/kg |  | 1.2 mg/kg |  | 
O=C1CN([C@H]2CC[C@](c3ccccc3)(N3CCCC(c4cc(C(F)(F)F)cc(C(F)(F)F)c4)C3=O)CC2)CCN1c1ccccc1 (some centres undefined) |  | 6530 nM |  | 1.5 nM |  |  |  |  | 
O=C1C(c2cc(C(F)(F)F)cc(C(F)(F)F)c2)CCCN1[C@]1(c2ccccc2)CC[C@@H](N2CCC3(CCOC3)CC2)CC1 (some centres undefined) | 34% | 798 nM |  | 0.8 nM |  |  |  |  | 
CC(C(=O)N[C@]1(c2ccccc2)CC[C@@H](N2CCC3(CCOC3)CC2)CC1)c1cc(C(F)(F)F)cc(C(F)(F)F)c1 (some centres undefined) |  |  |  | 0.34 nM | 1.44 mg/kg |  | 1.62 mg/kg | 1.1 mg/kg | 2.2 mg/kg
CC1(c2cc(C(F)(F)F)cc(C(F)(F)F)c2)CCN([C@]2(c3ccccc3)CC[C@@H](N3CCN(c4ccccc4Cl)C(=O)C3)CC2)C1=O (some centres undefined) | 57% |  |  | 0.48 nM |  |  |  |  | 
COC1(c2cc(C(F)(F)F)cc(C(F)(F)F)c2)CCN([C@]2(c3ccccc3)CC[C@@H](N3CCC4(CCOC4)CC3)CC2)C1=O (some centres undefined) | 29% |  |  | 0.48 nM |  |  |  |  | 
CC1(c2cc(C(F)(F)F)cc(C(F)(F)F)c2)CCN([C@]2(c3ccccc3)CC[C@@H](N3CCN(c4ccccc4)C(=O)C3)CC2)C1=O (some centres undefined) |  |  | 90% | 0.48 nM | 0.22 mg/kg |  | 0.6 mg/kg |  | 
